US10040798B2, “Pyrrolopyridazine inhibitors of IRAK4 activity” (MERCK SHARP & DOHME CORP., priority 2015, dated 2018)
Structures can show the parent of a compound that is named as a salt.

molecular target: IRAK4 (Homo sapiens (Human), UniProt Q9NWZ3); experiment: IRAK4 Kinase Assay (IMAP fluorescence polarization); type: biochemical; settings: 0.5 nM GST tagged IRAK4, 100 μM ATP, 30 minutes at 25° C., IMAP FP
Experimental: The kinase activity of IRAK4 is determined by its ability to catalyze the phosphorylation of a fluorescent polypeptide substrate. The extent of phosphorylation is measured using the IMAP technology (Molecular Devices) where the phosphorylated fluorescent substrate binds to the large M (III)-based nanoparticles which reduces the rotational speed of the substrate and thus increases its fluorescent polarization (FP).
20 μL reaction mixture contains 10 mM TriHCl, pH 7.2, 0.5 nM GST tagged IRAK4 (SignalChem), 100 nM fluorescent peptide substrate (RP7030, Molecular Devices), 100 μM ATP, 1 mM DDT, 1 mM MgCl2, and 0.01% Tween 20. The reaction is initiated by the addition of ATP. After incubation for 30 minutes at 25° C., 60 μL of Progressive IMAP Reagent (Molecular Devices) is added to stop the reaction. Change in RP7030's FP is determined by a FP reader (Analyst HT, LJL BioSystems).

Chain of IRAK4 (Q9NWZ3 whole entry): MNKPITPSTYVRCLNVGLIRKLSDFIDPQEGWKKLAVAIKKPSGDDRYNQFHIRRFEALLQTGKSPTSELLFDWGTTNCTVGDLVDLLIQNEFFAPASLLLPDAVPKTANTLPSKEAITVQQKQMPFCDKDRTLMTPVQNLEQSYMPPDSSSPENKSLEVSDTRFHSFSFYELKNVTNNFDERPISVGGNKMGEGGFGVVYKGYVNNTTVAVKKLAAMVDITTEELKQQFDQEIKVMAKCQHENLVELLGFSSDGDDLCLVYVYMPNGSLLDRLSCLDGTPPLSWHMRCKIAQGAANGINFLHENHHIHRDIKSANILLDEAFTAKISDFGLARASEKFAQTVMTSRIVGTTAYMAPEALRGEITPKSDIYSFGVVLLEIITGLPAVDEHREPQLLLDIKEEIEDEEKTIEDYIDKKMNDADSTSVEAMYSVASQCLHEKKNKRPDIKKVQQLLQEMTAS

| SMILES | IC50 [nM] |
| --- | --- |
| N#Cc1sccc1NC(=O)c1ccc2ccc(N3C[C@H]4CC[C@@H]3CN4)nn12 (single isomer, unassigned) [Example 81, N-(2-cyanothiophen-3-yl)-2-[(1S,4S)- or (1R,4R)-2,5-diazabicyclo[2.2.2]oct-2-yl]pyrrolo[1,2-b]pyridazine-7-carboxamide formate] | 356 |
| O=C(Nc1cscc1Cl)c1ccc2ccc(N3C[C@@H]4CC[C@H]3CN4)nn12 (single isomer, unassigned) [Example 83, N-(4-chlorothiophen-3-yl)-2-[(1S,4S)- or (1R,4R)-2,5-diazabicyclo[2.2.2]oct-2-yl]pyrrolo[1,2-b]pyridazine-7-carboxamide trifluoroacetate] | 188 |
| O=C(Nc1cscc1Cl)c1ccc2ccc(N3C[C@H]4CC[C@@H]3CN4)nn12 (single isomer, unassigned) [Example 84, N-(4-chlorothiophen-3-yl)-2-[(1S,4S)- or (1R,4R)-2,5-diazabicyclo[2.2.2]oct-2-yl]pyrrolo[1,2-b]pyridazine-7-carboxamide trifluoroacetate] | 126 |
| N#Cc1ccccc1NC(=O)c1ccc2ccc(N[C@@H]3CCCCNC3)nn12 (single isomer, unassigned) [Example 108, 2-[(3R)- or (3S)-azepan-3-ylamino]-N-(2-cyanophenyl)pyrrolo [1,2-b]pyridazine-7-carboxamide trifluoroacetate] | 89 |
| N#Cc1ccccc1NC(=O)c1ccc2ccc(N[C@H]3CCCCNC3)nn12 (single isomer, unassigned) [Example 109, 2-[(3R)- or (3S)-azepan-3-ylamino]-N-(2-cyanophenyl)pyrrolo [1,2-b]pyridazine-7-carboxamide trifluoroacetate] | 7 |
| O=C(Nc1ccsc1C(F)(F)F)c1ccc2ccc(N3C[C@@H]4CC[C@H]3CN4)nn12 (single isomer, unassigned) [Example 113, 2-[(1S,4S)- or (1R,4R)-2,5-diazabicyclo[2.2.2]oct-2-yl]-N-[2-(trifluoromethyl)thiophen-3-yl]pyrrolo[1,2-b]pyridazine-7-carboxamide trifluoroacetate] | 1220 |
| O=C(Nc1ccsc1C(F)(F)F)c1ccc2ccc(N3C[C@H]4CC[C@@H]3CN4)nn12 (single isomer, unassigned) [Example 114, 2-[(1S,4S)- or (1R,4R)-2,5-diazabicyclo[2.2.2]oct-2-yl]-N-[2-(trifluoromethyl)thiophen-3-yl]pyrrolo[1,2-b]pyridazine-7-carboxamide trifluoroacetate] | 1770 |
| Cn1cc(NC(=O)c2ccc3ccc(N4C[C@@H]5CNC[C@H]4C5)nn23)c(C(F)F)n1 (single isomer, unassigned) [Example 125, 2-[(1S,5R)- or (1R,5S)-3,6-diazabicyclo[3.2.1]oct-6-yl]-N-[3-(difluoromethyl)-1-methyl-1H-pyrazol-4-yl]pyrrolo[1,2-b]pyridazine-7-carboxamide] | 5 |
| Cn1cc(NC(=O)c2ccc3ccc(N4C[C@H]5CNC[C@@H]4C5)nn23)c(C(F)F)n1 (single isomer, unassigned) [Example 126, 2-[(1S,5R)- or (1R,5S)-3,6-diazabicyclo[3.2.1]oct-6-yl]-N-[3-(difluoromethyl)-1-methyl-1H-pyrazol-4-yl]pyrrolo[1,2-b]pyridazine-7-carboxamide] | 14 |
| Cn1cc(NC(=O)c2ccc3ccc(N[C@@H]4CCCC[C@@H]4N)nn23)c(C(F)(F)F)n1 [Example 1, 2-(((1R,2S)-2-Aminocyclohexyl)amino)-N-(1-methyl-3-(trifluoromethyl)-1H-pyrazol-4-yl)pyrrolo[1,2-b]pyridazine-7-carboxamide] | 5 |
| Cn1cc(NC(=O)c2ccc3ccc(N[C@@H]4CCCC[C@@H]4O)nn23)c(C(F)(F)F)n1 [Example 5, 2-{[(1R,2S)-2-hydroxycyclo-hexyl]amino}-N-[1-methyl-3-(trifluoromethyl)-1H-pyrazol-4-yl]pyrrolo[1,2-b]pyridazine-7-carboxamide trifluoroacetate] | 122 |
| Cn1cc(NC(=O)c2ccc3ccc(N[C@@H]4CCCNC4)nn23)c(C(F)(F)F)n1 [Example 6, N-[1-methyl-3-(trifluoromethyl)-1H-pyrazol-4-yl]-2-[(3R)-piperidin-3-ylamino]pyrrolo[1,2-b]pyridazine-7-carboxamide trifluoroacetate] | 1 |
| Cn1cc(NC(=O)c2ccc3ccc(N[C@@H]4CCCC(F)(F)[C@@H]4N)nn23)c(C(F)(F)F)n1 [Example 7, 2-{[(1R,2R)-2-amino-3,3-difluorocyclo-hexyl]amino}-N-[1-methyl-3-(trifluoromethyl)-1H-pyrazol-4-yl]pyrrolo[1,2-b]pyridazine-7-carboxamide trifluoroacetate] | 189 |
| Cn1cc(NC(=O)c2ccc3ccc(N4CC5CCC4CN5)nn23)c(C(F)(F)F)n1 (stereo not shown) [Example 8, 2-(2,5-diazabicyclo[2.2.2]oct-2-yl)-N-[1-methyl-3-(trifluoromethyl)-1H-pyrazol-4-yl]pyrrolo[1,2-b]pyridazine-7-carboxamide] | 19 |
| Cn1cc(NC(=O)c2ccc3ccc(N4CCNCC5(CC5)C4)nn23)c(C(F)(F)F)n1 [Example 9, 2-(5,8-diazaspiro[2.6]non-5-yl)-N-[1-methyl-3-(trifluoromethyl)-1H-pyrazol-4-yl]pyrrolo[1,2-b]pyridazine-7-carboxamide trifluoroacetate] | 27 |
| Cn1cc(NC(=O)c2ccc3ccc(N4CCCNCC4)nn23)c(C(F)(F)F)n1 [Example 10, 2-(1,4-diazepan-1-yl)-N-[1-methyl-3-(trifluoromethyl)-1H-pyrazol-4-yl]pyrrolo[1,2-b]pyridazine-7-carboxamide trifluoroacetate] | 33 |
| Cn1cc(NC(=O)c2ccc3ccc(N4CC5CCC4CN5)nn23)c(C(F)(F)F)n1 (stereo not shown) [Example 11, 2-(2,5-diazabicyclo[2.2.2]oct-2-yl)-N-[1-methyl-3-(trifluoromethyl)-1H-pyrazol-4-yl]pyrrolo[1,2-b]pyridazine-7-carboxamide] | 27 |
| Cn1cc(NC(=O)c2ccc3ccc(N4CCC[C@@H](N)C4)nn23)c(C(F)(F)F)n1 [Example 12, 2-[(3R)-3-aminopiperidin-1-yl]-N-[1-methyl-3-(trifluoromethyl)-1H-pyrazol-4-yl]pyrrolo[1,2-b]pyridazine-7-carboxamide trifluoroacetate] | 0.5 |
| Cn1cc(NC(=O)c2ccc3ccc(N4CCC[C@@H](N)C4)nn23)c(C(F)F)n1 [Example 13, 2-[(3R)-3-aminopiperidin-1-yl]-N-[3-(difluoromethyl)-1-methyl-1H-pyrazol-4-yl]pyrrolo[1,2-b]pyridazine-7-carboxamide trifluoroacetate] | 0.5 |
| Cn1cc(NC(=O)c2ccc3ccc(N4CCNCC4)nn23)c(C(F)F)n1 [Example 14, N-[3-(difluoromethyl)-1-methyl-1H-pyrazol-4-yl]-2-piperazin-1-ylpyrrolo[1,2-b]pyridazine-7-carboxamide trifluoroacetate] | 2 |
| Cn1cc(NC(=O)c2ccc3ccc(N4CCCNCC4)nn23)c(C(F)F)n1 [Example 15, 2-(1,4-diazepan-1-yl)-N-[3-(difluoromethyl)-1-methyl-1H-pyrazol-4-yl]pyrrolo[1,2-b]pyridazine-7-carboxamide trifluoroacetate] | 2 |
| Cn1cc(NC(=O)c2ccc3ccc(N[C@@H]4CCCNC4)nn23)c(C(F)F)n1 [Example 16, N-[3-(difluoromethyl)-1-methyl-1H-pyrazol-4-yl]-2-[(3R)-piperidin-3-ylamino]pyrrolo[1,2-b]pyridazine-7-carboxamide trifluoroacetate] | 0.9 |
| Cn1cc(NC(=O)c2ccc3ccc(N4CC5CCC4CN5)nn23)c(C(F)F)n1 (stereo not shown) [Example 17, 2-(2,5-diazabicyclo[2.2.2]oct-2-yl)-N-[3-(difluoromethyl)-1-methyl-1H-pyrazol-4-yl]pyrrolo[1,2-b]pyridazine-7-carboxamide trifluoroacetate] | 4 |
| Cn1cc(NC(=O)c2ccc3ccc(N4CCNCC5(CC5)C4)nn23)c(C(F)F)n1 [Example 18, 2-(5,8-diazaspiro[2.6]non-5-yl)-N-[3-(difluoromethyl)-1-methyl-1H-pyrazol-4-yl]pyrrolo[1,2-b]pyridazine-7-carboxamide trifluoroacetate] | 2 |
| Cn1cc(NC(=O)c2ccc3ccc(N[C@@H]4CCCC[C@@H]4N)nn23)c(C(F)F)n1 [Example 19, 2-{[(1R,2S)-2-aminocyclo-hexyl]amino}-N-[3-(difluoromethyl)-1-methyl-1H-pyrazol-4-yl]pyrrolo[1,2-b]pyridazine-7-carboxamide trifluoroacetate] | 1 |
| Cn1cc(NC(=O)c2ccc3ccc(N[C@@H]4CCCC[C@@H]4O)nn23)c(C(F)F)n1 [Example 20, N-[3-(difluoromethyl)-1-methyl-1H-pyrazol-4-yl]-2-{[(1R,2S)-2-hydroxycyclohexyl]amino}pyrrolo[1,2-b]pyridazine-7-carboxamide trifluoroacetate] | 11 |
| Cn1cc(NC(=O)c2ccc3ccc(N4CCCNCC4)nn23)c(Br)n1 [Example 21, N-(3-bromo-1-methyl-1H-pyrazol-4-yl)-2-(1,4-diazepan-1-yl)pyrrolo[1,2-b]pyridazine-7-carboxamide trifluoroacetate] | 32 |
| Cn1cc(NC(=O)c2ccc3ccc(N[C@@H]4CCCC[C@@H]4N)nn23)c(Br)n1 [Example 22, 2-{[(1R,2S)-2-amino-cyclohexyl]amino}-N-(3-bromo-1-methyl-1H-pyrazol-4-yl)pyrrolo[1,2-b]pyridazine-7-carboxamide trifluoroacetate] | 2 |
